Eight molecules from patent US8182844B2, “Use of Clerodendrum sp. for treating tic disorders or psychiatric disorders with sensorimotor gating deficits” (priority 2010, dated 2012) can be followed below.

The test system of assay [1] is chronic motor tic disorder. Nature of the assay: Case report: effect on tics in a child with chronic motor tic disorder. The assay is classed as in vivo, human. Particulars: single patient, before taking the leaf extract. Here is the method: Withholding all medications for 1 day, they received examination of catecholamine metabolites in the cerebrospinal fluid.
Subsequently, this patient, started to take the extract of the grounded leaves of Clerodendrum inerme, which was prepared by mixing the leaves with water by a blender and collecting the juice after filtration as resulted. […] Honey was added because of the bitter taste. […] The follow-up IQ test had been arranged, but the patient was absent on the examination day.
This patient followed up regularly in NTUH pediatric outpatient clinic for their seizure problem.

The test system of assay [2] is methamphetamine-induced PPI disruption in mice. Nature of the assay: Methamphetamine-induced disruption of prepulse inhibition of the startle response (PPI), dopamine hypothesis model. The assay is classed as in vivo, mouse. The source says: PPI is a neurophysiological phenomenon that the startle response to a stimulus, which could be a sound, an airpuff or a light, is inhibited if a stimulus with the same source but at weaker intensity prior to the stimulus was applied within a short interval. This is a fast neuroadaptative system to protect the living organisms from startle stimulation. It is believed to be a processing protection in a living organism that PPI serves as a sensorimotor gating, a pre-conscious regulator of attention, to reduce the startle response which is harmful to the information professing. […] PPI can be assessed by the motor response in either humans (measuring the eyeblink response by electromyograph) or animals (measuring the startle response).
Mice were i.p. injected by methamphetamine (2 mg/kg) to induce PPI disruption, as a schizophrenia model based on dopamine hypothesis. PPI was measured using the SR-LAB Startle Response System (San Diego Instrument, San Diego, Calif.). […] In the startle-alone trials, the basic auditory startle was measured, and in the prepulse-plus-startle trials, the amount of inhibition of normal startle induced by the prepulse was measured and expressed as a percentage of the basic startle. In the prepulse-alone trials, the normal response to a weak noise was measured as a control.

As to `Clc1cccc(Cl)c1N=C1NCCN1` [clonidine], the “effect of earlier anti-tic medications on the involuntary movements of the patient” value (“effect of earlier anti-tic medications” below) in assay [1] is given as “without success”. For the molecule `CCCN1C[C@H](CSC)C[C@@H]2c3cccc4[nH]cc(c34)C[C@H]21` [pergolide], the “effect of earlier anti-tic medications” value in assay [1] is recorded as “without success”. In the case of `CN[C@@H](C)Cc1ccccc1` [methamphetamine], the “PPI (inhibition of startle response to 115 db by prepulse)” value in assay [2] (methamphetamine 2 mg/kg i.p. alone, without extract, 71 db prepulse, control mice 55.6±3.5%) is reported as 42.4±4.1%.

Regarding `CCN1CCCC1CNC(=O)c1cc(S(N)(=O)=O)ccc1OC` (stereo not drawn) [sulpiride], the “effect of earlier anti-tic medications” value in assay [1] is given as “without success”.

Consider biperidal, for which the “effect of earlier anti-tic medications” value in assay [1] was “without success”. `CN1C(=O)CN=C(c2ccccc2)c2cc(Cl)ccc21` [diazepam]: the “rescue of methamphetamine-induced PPI disruption” value in assay [2] (diazepam, dose not given, methamphetamine 2 mg/kg, FIG. 2B) was “did not rescue”. Also, in assay [1], the “effect of earlier anti-tic medications” value is “in vain”. Take `Cc1nc2n(c(=O)c1CCN1CCC(c3noc4cc(F)ccc34)CC1)CCCC2` [Risperidone]: the “effect of earlier anti-tic medications” value in assay [1] is “in vain”.

With `O=C(CCCN1CCC(O)(c2ccc(Cl)cc2)CC1)c1ccc(F)cc1` [haloperidol], in assay [1], the “effect of earlier anti-tic medications” value was “in vain”.
